Results published in article PMC6193938, “Characterization of a novel AICARFT inhibitor which potently elevates ZMP and has anti-tumor activity in murine models” (Scientific Reports, 2018).
Read-outs that look alike come from different tables or passages of the source.

How the values were obtained:
SW620 (colon) = experiment: Low folate & high folate in vitro proliferation assay (Alamar Blue); format: cell-based; conditions: Homo sapiens
Protocol: (§1) Cells lines were acquired from cell banks, see supplemental material, grown using the cell banks recommended culture conditions (Supplemental Table 3). In some experiments noted “low folate” the cells were washed and grown in folate free RPMI-1640 media (Gibco #27016-021) supplemented with 5 ml 1 M Hepes, 5 ml 100 mM Na pyruvate, 2.5 mg/ml glucose and 10% defined FBS (Hyclone #SH30070) per 500 mL media for 5–7 days to deplete intracellular folate levels prior to the start of the experiment. Where noted, cells were maintained in complete “high folate” RPMI-1640 media (ATCC #30-2001) with 10% defined FBS to contrast with the low folate conditions.
(§2) Cells were cultured using recommended culture conditions unless noted otherwise (Supplemental Table 3). Cells were plated, dosed with compound and incubated at 37 °C for approximately 2 doubling times as determined for each cell line. Cell Titer Glo (Promega) assay was used to measure proliferation according to manufacturer’s recommendations by measuring luminescence with Flexstation3 (Molecular Devices) with 500 ms integration time. […] The % response was fit to a four-parameter logistic equation using ACTIVITYBASE 4.0 to determine the absolute IC50 values.
(§3) For a limited number of cell lines, compound dosing was performed under high or low folate conditions with cell viability being determined with Alamar Blue rather than an ATP dependent assay. Cells were plated and treated as described above. Proliferation was measured using Alamar Blue Cell Viability Reagent (Invitrogen), and read after approximately 1.5–4 hours incubation at 37 °C on the Envision plate reader (Perkin Elmer) with excitation at 570 nm and emission at 585 nm. The % inhibition for each sample was calculated and fit as described above.

MDA-MB-231 (mammary) = experiment: as above; format: cell-based; conditions: Homo sapiens
Protocol: as §1, §2, §3

NCI-H1155 (lung) = experiment: as above; format: cell-based; conditions: Homo sapiens
Protocol: as §1, §2, §3

NCI-H1993 (lung) = experiment: as above; format: cell-based; conditions: Homo sapiens
Protocol: as §1, §2, §3

NCI-H1437 (lung) = experiment: as above; format: cell-based; conditions: Homo sapiens
Protocol: as §1, §2, §3

SNU-16 (gastric) = experiment: as above; format: cell-based; conditions: Homo sapiens
Protocol: as §1, §2, §3

CHK2 = target: T1, CHK2 (Homo sapiens, UniProt O96017); experiment: CEREP protein kinase assay; format: biochemical
T1 construct: purchased CEREP Panlabs (Eurofins)
T1 sequence (O96017 whole entry): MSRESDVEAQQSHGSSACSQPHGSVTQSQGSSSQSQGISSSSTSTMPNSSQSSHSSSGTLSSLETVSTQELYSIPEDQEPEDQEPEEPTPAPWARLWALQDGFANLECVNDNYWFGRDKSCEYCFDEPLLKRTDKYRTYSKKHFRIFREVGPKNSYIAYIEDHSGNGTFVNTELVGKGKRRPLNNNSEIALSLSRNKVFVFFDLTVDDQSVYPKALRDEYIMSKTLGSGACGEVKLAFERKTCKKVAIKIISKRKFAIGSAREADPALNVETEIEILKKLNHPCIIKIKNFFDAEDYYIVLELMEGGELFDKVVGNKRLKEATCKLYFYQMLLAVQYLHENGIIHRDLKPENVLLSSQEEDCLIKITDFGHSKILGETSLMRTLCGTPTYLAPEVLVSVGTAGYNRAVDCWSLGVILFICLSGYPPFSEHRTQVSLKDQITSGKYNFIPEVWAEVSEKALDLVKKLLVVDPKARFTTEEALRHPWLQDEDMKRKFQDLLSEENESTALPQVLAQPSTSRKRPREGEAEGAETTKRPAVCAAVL

FGFR1 = target: T2, FGFR1 (Homo sapiens, UniProt P11362); experiment: CEREP protein kinase assay; format: biochemical
T2 construct: purchased CEREP Panlabs (Eurofins)
T2 sequence (P11362 22-822): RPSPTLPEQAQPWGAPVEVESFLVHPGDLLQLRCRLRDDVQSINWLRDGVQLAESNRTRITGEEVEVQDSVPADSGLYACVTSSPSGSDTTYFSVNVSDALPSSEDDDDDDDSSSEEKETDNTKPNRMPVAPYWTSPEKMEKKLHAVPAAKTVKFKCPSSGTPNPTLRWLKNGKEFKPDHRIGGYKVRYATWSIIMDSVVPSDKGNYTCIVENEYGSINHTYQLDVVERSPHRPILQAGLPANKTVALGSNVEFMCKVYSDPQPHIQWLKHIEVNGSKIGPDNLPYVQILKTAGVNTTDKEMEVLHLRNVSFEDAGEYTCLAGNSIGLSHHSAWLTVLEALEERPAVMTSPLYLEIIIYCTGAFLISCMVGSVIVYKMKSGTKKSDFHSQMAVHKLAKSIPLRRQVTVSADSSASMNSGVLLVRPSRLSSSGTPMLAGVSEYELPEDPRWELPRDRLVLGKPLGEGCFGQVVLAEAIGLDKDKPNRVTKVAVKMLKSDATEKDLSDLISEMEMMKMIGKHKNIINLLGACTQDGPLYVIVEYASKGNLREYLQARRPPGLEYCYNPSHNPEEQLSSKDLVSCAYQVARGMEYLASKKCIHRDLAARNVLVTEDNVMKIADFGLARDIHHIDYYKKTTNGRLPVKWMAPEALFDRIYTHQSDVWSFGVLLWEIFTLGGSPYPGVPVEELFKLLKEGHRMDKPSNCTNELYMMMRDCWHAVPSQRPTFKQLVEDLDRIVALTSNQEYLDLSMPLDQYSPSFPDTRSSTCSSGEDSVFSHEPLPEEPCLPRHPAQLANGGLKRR

IKKb = target: T3, IKKb (Homo sapiens, UniProt O14920); experiment: CEREP protein kinase assay; format: biochemical
T3 construct: purchased CEREP Panlabs (Eurofins)
T3 sequence (O14920 1-756): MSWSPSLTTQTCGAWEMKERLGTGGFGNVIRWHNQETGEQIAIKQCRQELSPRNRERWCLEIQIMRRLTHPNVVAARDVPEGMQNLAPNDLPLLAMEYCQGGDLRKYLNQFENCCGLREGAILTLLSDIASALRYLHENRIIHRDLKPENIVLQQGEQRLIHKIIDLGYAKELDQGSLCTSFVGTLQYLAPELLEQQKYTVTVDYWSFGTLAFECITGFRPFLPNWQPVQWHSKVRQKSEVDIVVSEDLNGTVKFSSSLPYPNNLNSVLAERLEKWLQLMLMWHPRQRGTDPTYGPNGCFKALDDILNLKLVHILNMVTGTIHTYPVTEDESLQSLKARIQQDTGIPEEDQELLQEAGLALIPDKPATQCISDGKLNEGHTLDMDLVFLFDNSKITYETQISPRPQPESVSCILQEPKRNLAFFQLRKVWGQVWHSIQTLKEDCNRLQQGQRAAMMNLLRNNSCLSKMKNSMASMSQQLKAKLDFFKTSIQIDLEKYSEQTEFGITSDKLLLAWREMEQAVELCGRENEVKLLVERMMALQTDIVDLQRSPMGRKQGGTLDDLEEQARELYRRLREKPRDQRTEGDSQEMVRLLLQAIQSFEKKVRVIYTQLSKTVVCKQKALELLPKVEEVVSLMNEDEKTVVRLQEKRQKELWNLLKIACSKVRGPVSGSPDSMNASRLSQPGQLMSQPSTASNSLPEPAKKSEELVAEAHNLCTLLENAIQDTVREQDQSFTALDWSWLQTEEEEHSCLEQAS

IGF1R = target: T4, IGF1R (Homo sapiens, UniProt P08069); experiment: CEREP protein kinase assay; format: biochemical
T4 construct: purchased CEREP Panlabs (Eurofins)
T4 sequence (P08069 31-1367): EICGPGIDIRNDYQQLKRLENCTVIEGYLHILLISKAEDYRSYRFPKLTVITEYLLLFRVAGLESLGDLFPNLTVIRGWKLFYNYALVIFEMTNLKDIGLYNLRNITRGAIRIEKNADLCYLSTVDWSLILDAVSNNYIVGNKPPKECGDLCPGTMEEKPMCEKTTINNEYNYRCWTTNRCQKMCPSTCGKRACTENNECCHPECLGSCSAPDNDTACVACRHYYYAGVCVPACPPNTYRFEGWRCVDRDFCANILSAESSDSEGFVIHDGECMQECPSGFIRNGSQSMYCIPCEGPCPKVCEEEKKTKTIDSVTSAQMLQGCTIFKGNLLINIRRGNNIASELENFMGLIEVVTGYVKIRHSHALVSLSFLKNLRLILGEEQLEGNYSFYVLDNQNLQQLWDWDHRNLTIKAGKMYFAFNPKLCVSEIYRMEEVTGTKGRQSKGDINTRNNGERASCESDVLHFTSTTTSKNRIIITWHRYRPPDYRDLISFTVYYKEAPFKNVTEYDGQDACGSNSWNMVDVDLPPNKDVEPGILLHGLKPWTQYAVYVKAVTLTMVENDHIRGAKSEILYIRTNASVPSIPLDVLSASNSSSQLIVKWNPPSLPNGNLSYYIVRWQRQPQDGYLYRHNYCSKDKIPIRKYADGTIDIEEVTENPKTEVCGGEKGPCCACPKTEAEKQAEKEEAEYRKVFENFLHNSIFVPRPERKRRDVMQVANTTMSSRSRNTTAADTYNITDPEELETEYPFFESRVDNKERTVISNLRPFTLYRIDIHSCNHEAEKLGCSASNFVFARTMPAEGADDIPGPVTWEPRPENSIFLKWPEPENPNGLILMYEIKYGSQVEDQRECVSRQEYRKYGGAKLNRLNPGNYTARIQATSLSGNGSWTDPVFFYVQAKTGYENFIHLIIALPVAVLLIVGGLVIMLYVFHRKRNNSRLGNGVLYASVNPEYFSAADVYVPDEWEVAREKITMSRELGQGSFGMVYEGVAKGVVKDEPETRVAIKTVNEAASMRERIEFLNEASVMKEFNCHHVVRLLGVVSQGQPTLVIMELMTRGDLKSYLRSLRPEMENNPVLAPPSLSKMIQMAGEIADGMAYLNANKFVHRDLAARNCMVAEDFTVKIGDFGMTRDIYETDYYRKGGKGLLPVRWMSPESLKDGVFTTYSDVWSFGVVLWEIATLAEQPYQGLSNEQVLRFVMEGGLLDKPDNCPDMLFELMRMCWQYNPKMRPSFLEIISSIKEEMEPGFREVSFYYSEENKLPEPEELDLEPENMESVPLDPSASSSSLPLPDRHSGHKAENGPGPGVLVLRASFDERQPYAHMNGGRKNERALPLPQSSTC

MDA-MB-231met2 = experiment: In vitro proliferation assay (Alamar Blue); format: cell-based, human
Protocol: Cells lines were acquired from cell banks, see supplemental material, grown using the cell banks recommended culture conditions (Supplemental Table 3). In some experiments noted “low folate” the cells were washed and grown in folate free RPMI-1640 media (Gibco #27016-021) supplemented with 5 ml 1 M Hepes, 5 ml 100 mM Na pyruvate, 2.5 mg/ml glucose and 10% defined FBS (Hyclone #SH30070) per 500 mL media for 5–7 days to deplete intracellular folate levels prior to the start of the experiment. Where noted, cells were maintained in complete “high folate” RPMI-1640 media (ATCC #30-2001) with 10% defined FBS to contrast with the low folate conditions. […]
Cells were cultured using recommended culture conditions unless noted otherwise (Supplemental Table 3). Cells were plated, dosed with compound and incubated at 37 °C for approximately 2 doubling times as determined for each cell line. Cell Titer Glo (Promega) assay was used to measure proliferation according to manufacturer’s recommendations by measuring luminescence with Flexstation3 (Molecular Devices) with 500 ms integration time. […]
For a limited number of cell lines, compound dosing was performed under high or low folate conditions with cell viability being determined with Alamar Blue rather than an ATP dependent assay. […] The % inhibition for each sample was calculated and fit as described above.

[1] = RPMI media, read-out: Alamar Blue GI50 Regular folate
[2] = low folate RPMI media, read-out: Alamar Blue GI50 Low folate

O=c1[nH]ccc2cc(F)c(NS(=O)(=O)c3ccc(N4CC[C@@H](O)C4)s3)cc12 [LSN3213128, N-(6-Fluoro-1-oxo-1,2-dihydroisoquinolin-7-yl)-5-[(3R)-3-hydroxypyrrolidin-1-yl]thiophene-2-sulfonamide]
GI50 (SW620 (colon); SW-620, RPMI media, read-out: Alamar Blue GI50 Regular folate): 3910 ± 3240 nM | GI50 (SW620 (colon); SW-620, low folate RPMI media, read-out: Alamar Blue GI50 Low folate): 8.8 ± 1.6 nM | GI50 (MDA-MB-231 (mammary); [1]): 85 ± 42 nM | GI50 (MDA-MB-231 (mammary); [2]): 0.49 nM | GI50 (NCI-H1155 (lung); [1]): 729 ± 215 nM | GI50 (NCI-H1155 (lung); [2]): 4.9 nM | GI50 (NCI-H1993 (lung); [1]): 2680 ± 2540 nM | GI50 (NCI-H1993 (lung); [2]): 3 ± 2.7 nM | GI50 (NCI-H1437 (lung); [1]): 1880 ± 894 nM | GI50 (NCI-H1437 (lung); [2]): 0.73 nM | GI50 (SNU-16 (gastric); [1]): 1590 ± 1270 nM | GI50 (SNU-16 (gastric); [2]): 1.2 ± 1.2 nM | inhibition at 0.2 µM (CHK2; @ 0.2 uM): -9.59% | inhibition at 2 µM (CHK2; @ 2 uM): 14.3% | inhibition at 20 µM (CHK2; @ 20 uM): 8.93% | inhibition at 0.2 µM (FGFR1; @ 0.2 uM): -9.3% | inhibition at 2 µM (FGFR1; @ 2 uM): 0.634% | inhibition at 20 µM (FGFR1; @ 20 uM): 10.3% | inhibition at 0.2 µM (IKKb; @ 0.2 uM): -6.4% | inhibition at 2 µM (IKKb; @ 2 uM): 0.126% | inhibition at 20 µM (IKKb; @ 20 uM): 4.91% | inhibition at 0.2 µM (IGF1R; @ 0.2 uM): -0.761% | inhibition at 2 µM (IGF1R; @ 2 uM): 6.61% | inhibition at 20 µM (IGF1R; @ 20 uM): 60.3% | anti-proliferative effect on supplementation with hypoxanthine (MDA-MB-231met2; 32 μM hypoxanthine): completely abrogated | GI50 (MDA-MB-231met2; Homo sapiens, RPMI media, Alamar Blue): 88 nM
